The record followed here is PubChem BioAssay (NCI).

Experiment in all cases: NCI anticancer screen, dose series, 48 h
Assay [1] concerns MOLT-4 leukemia.
The subject of assay [2] is HOP-92 NSCLC.
The subject of assay [3] is OVCAR-8 ovarian.
For assay [4], the system named is U251 CNS.
In assay [5] the test system is HCT-15 colon.
Assay [6] concerns SF-268 CNS.
Assay [7] deals with HOP-62 NSCLC.
Assay [8] deals with HCC-2998 colon.
For assay [9], the system named is HCT-116 colon.
Assay [10] deals with SK-MEL-5 melanoma.

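Assay format: 96-well plates, 48-hour exposure. GI50 = concentration required for 50% inhibition of growth. TGI is the concentration that stops growth completely.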

Consider `C=C(c1ccc(C(=O)NCCCn2ccnc2)cc1)c1cc2c(cc1C)C(C)(C)CCC2(C)C`, for which the GI50 is 2.65 µM in [1]; 1.62 µM in [2]; 2.95 µM in assay [3]; 0.288 µM in assay [4]; 0.118 µM in assay [5]; 3.83 µM in [6]. Besides, the GI50 was 2.46 µM in assay [7], 0.419 µM in assay [8], 0.0398 µM in assay [9] and 1.14 µM in [10]. Moreover, the TGI in [1] was over 100 µM; in assay [2], 7.26 µM; in assay [3], 10.7 µM; in assay [4], 3.29 µM; in [5], 17 µM; in [6], over 100 µM. Also, the TGI turned out to be 11.6 µM in [7], 3.85 µM in assay [8], 1.79 µM in [9] and 2.43 µM in assay [10].
Consider `COc1ccc(N=C2C(=O)Nc3ccc(Br)cc32)cc1`, for which the TGI stood at 74.4 µM in [1]; 69 µM in [2]; 32.2 µM in [3]; 96.8 µM in assay [4]; 44 µM in assay [5]; 57.2 µM in [6]. Besides, the TGI amounted to 88.4 µM in [7], 37.4 µM in [8], 35.2 µM in assay [9] and 23.3 µM in [10].
As to `C#CCN(CCCOc1ccc(Cl)cc1Cl)CCCSC(=O)CCCCCN1/C(=C\C=C2/CCCC(/C=C/C3=[N+](CCCCCC(=O)[O-])c4ccccc4C3(C)C)=C2Cl)C(C)(C)c2ccccc21`, the GI50 in [1] is 1.48 µM; in assay [2], 1.57 µM; in assay [3], 1.99 µM; in assay [4], 0.733 µM; in assay [5], 4.12 µM; in assay [6] it was 1.84 µM. Further, the GI50 in assay [7] was 2.1 µM; in assay [8], 1.78 µM; in assay [9] it was 1.63 µM; in [10], 1.62 µM. The TGI was over 100 µM in [1]; 3.53 µM in assay [2]; 6.83 µM in [3]; 2.11 µM in assay [4]; 21.9 µM in assay [5]; 6.74 µM in assay [6]. Moreover, the TGI in assay [7] is 5.72 µM; in assay [8], 3.51 µM; in [9], 3.14 µM; in assay [10], 3.02 µM.
For `COc1ccc(C2=NOC3=c4ccccc4=CSC3=C2c2ccccc2)cc1`, the GI50 in assay [1] is over 100 µM; in assay [2], 23.6 µM; in assay [3], 42.9 µM; in assay [4], 25.2 µM; in [5], 22.3 µM; in assay [6] it was 23.5 µM. Moreover, the GI50 in [7] is 17.3 µM; in assay [8], over 100 µM; in assay [9] it was 12.8 µM; in [10], 16.5 µM. For the same molecule, the TGI was over 100 µM in assay [1]; 83.2 µM in assay [2]; over 100 µM in assay [3]; over 100 µM in assay [4]; over 100 µM in assay [5]; 79.6 µM in assay [6]. In addition, the TGI in [7] was over 100 µM; in [8], over 100 µM; in [9] it was over 100 µM; in assay [10] it was 39.7 µM.
Take `CN(Cc1cnc2nc(N)nc(N)c2n1)c1c(Cl)cc(C(=O)NC(CCC(=O)O)C(=O)O)cc1Br` (stereo unspecified): the GI50 in assay [1] is under 0.01 µM; in assay [2], over 100 µM; in assay [3], under 0.01 µM; in assay [4], under 0.0237 µM; in assay [5], under 0.01 µM; in assay [6], under 0.01 µM. Also, the GI50 was under 0.0221 µM in [7], under 0.01 µM in [8], under 0.01 µM in assay [9] and 0.0313 µM in assay [10]. The TGI in assay [1], in assay [2], in assay [3], in [4], in [5] and in assay [6] was over 100 µM each time. Further, the TGI in assay [7] is over 100 µM; in assay [8], 0.153 µM; in [9], over 100 µM; in [10], over 100 µM.
In the case of `c1ccc2c(c1)n1nnnc1c1nnnn21`, the TGI in assay [1], in assay [2], in assay [3], in assay [4], in [5] and in [6] was over 100 µM throughout. Besides, the TGI in assay [7], in assay [8], in [9] and in assay [10] was over 100 µM in each case.
In the case of `CC(C)OC(=O)c1cc(NC(=S)OC(C)C)ccc1Cl`, the TGI in [1] was over 79.2 µM; in assay [2] it was 46.4 µM; in assay [3], over 64.8 µM; in assay [4] it was over 57.6 µM; in assay [5], 53.4 µM; in assay [6], over 59.6 µM. In addition, the TGI in assay [7] is over 100 µM; in assay [8], over 57.5 µM; in assay [9], over 54.6 µM; in assay [10], 33.1 µM.
Take `CCOC(=O)C(=O)Nc1nc2ccc(OC)cc2s1`: the TGI in [1], in assay [2], in [3], in [4], in assay [5] and in [6] was over 100 µM in each case. Further, the TGI in [7], in assay [8] and in assay [10] was over 100 µM in each case.
`O=[N+]([O-])/C=C/c1cn(CCCCCCCCn2cc(/C=C/[N+](=O)[O-])c3ccccc32)c2ccccc12`: the TGI in [1], in assay [2], in assay [3], in [5], in assay [6] and in assay [7] was over 10 µM throughout. The TGI in assay [8] is over 10 µM; in assay [9], 0.396 µM; in assay [10], over 10 µM.
As to `CC1(C)N=C(N)N=C(N)N1c1ccc(CCCCCCc2ccc(S(=O)(=O)F)cc2)cc1`, the TGI is 3.15 µM in assay [2]; 7.01 µM in assay [3]; 16.6 µM in assay [4]; 20.9 µM in assay [5]; 31.3 µM in assay [6]; 15.8 µM in [7]. In addition, the TGI in assay [8] stood at 16 µM; in [9], 15.3 µM; in assay [10], 2.76 µM.
Turning to `CCOc1ccc(N=Nc2c(-c3ccccc3)nn(C(=O)CC(=O)Nc3ccccc3Cl)c2-c2ccccc2)cc1`, the TGI in assay [1], in [2], in assay [3], in [4], in assay [6] and in assay [7] was over 100 µM each time. The TGI in assay [8], in [9] and in [10] was over 100 µM throughout.
